From patent publication US20090304692A1, “TRIAZINE COMPOUNDS AS PI3 KINASE AND MTOR INHIBITORS” (Wyeth, priority 2008, published 2009) come the findings set out here.

The structures appear in SMILES notation. Where “and” joins values, the source holds several entries; their conditions need not be identical. Identical values can stand only once. Like-named read-outs stand apart in the source and are kept apart here. A value given as a limit tells only on which side of the number the result lay.

In one assay the target is PI3K-γ (Homo sapiens, UniProt P48736). As to the kind of experiment: PI3K-gamma fluorescence polarization assay. The conditions noted are these: read-out: IC50 PI3Kγ.
PI3K-γ, sequence (P48736 whole entry, species assumed): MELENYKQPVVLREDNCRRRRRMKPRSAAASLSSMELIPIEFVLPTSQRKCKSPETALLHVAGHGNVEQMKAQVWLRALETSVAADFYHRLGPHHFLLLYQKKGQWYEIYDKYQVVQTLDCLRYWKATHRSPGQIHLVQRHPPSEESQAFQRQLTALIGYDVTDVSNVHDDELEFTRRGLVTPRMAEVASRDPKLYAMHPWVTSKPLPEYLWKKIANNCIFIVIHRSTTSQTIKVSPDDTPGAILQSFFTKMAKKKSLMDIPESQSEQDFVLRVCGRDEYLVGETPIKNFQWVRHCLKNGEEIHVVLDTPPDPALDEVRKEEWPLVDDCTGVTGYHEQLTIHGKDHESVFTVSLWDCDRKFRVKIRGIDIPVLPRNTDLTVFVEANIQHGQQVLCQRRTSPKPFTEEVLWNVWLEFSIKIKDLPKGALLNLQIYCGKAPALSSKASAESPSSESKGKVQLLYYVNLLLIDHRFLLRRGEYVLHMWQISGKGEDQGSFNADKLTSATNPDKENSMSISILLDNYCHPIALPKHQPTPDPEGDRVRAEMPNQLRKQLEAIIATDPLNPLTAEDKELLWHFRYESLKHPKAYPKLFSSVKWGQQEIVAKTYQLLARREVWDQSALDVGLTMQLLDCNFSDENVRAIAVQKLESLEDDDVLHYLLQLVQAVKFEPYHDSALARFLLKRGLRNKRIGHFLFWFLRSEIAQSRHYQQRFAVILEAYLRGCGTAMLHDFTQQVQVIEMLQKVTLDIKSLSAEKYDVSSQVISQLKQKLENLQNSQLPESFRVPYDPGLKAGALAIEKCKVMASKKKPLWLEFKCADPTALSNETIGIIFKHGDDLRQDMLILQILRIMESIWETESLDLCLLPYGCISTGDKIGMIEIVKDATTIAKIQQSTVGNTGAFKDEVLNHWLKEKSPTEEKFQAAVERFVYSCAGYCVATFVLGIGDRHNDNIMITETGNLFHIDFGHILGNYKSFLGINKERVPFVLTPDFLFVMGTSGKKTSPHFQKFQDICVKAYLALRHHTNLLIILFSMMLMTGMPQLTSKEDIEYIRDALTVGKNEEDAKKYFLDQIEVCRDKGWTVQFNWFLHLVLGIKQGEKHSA
Another assay addresses Human mTOR (FLAG-TOR) (Homo sapiens, UniProt P42345). As to the kind of experiment: mTOR kinase assay (DELFIA format, purified enzyme). Format: biochemical.
In assay [1] the test system is human breast MDA-MB-361 tumor cell line. As to the kind of experiment: In vitro cell culture growth assay (MTS), MDA-MB-361. Format: cell-based. Conditions: Homo sapiens, MDA-MB-361, 72 h, MTS cell growth assay, three days after drug treatment, read-out: IC50 MDA-MB-361. (In general: Tetrazolium assays rely on reduction of a dye to a coloured formazan, in cell work by metabolically active cells.)

In assay [2] the test system is human prostate PC3-mm2 tumor cell line. As to the kind of experiment: In vitro cell culture growth assay (MTS), PC3-mm2. Format: cell-based. The conditions noted are these: Homo sapiens, PC3MM2, 72 h, MTS cell growth assay, three days after drug treatment, read-out: IC50 PC3-mm2.
The target of the next assay is PI3K-α (Homo sapiens, UniProt P42336). As to the kind of experiment: PI3K-alpha fluorescence polarization assay. The conditions noted are these: read-out: IC50 PI3Kα.
PI3K-α, sequence (P42336 whole entry, species assumed): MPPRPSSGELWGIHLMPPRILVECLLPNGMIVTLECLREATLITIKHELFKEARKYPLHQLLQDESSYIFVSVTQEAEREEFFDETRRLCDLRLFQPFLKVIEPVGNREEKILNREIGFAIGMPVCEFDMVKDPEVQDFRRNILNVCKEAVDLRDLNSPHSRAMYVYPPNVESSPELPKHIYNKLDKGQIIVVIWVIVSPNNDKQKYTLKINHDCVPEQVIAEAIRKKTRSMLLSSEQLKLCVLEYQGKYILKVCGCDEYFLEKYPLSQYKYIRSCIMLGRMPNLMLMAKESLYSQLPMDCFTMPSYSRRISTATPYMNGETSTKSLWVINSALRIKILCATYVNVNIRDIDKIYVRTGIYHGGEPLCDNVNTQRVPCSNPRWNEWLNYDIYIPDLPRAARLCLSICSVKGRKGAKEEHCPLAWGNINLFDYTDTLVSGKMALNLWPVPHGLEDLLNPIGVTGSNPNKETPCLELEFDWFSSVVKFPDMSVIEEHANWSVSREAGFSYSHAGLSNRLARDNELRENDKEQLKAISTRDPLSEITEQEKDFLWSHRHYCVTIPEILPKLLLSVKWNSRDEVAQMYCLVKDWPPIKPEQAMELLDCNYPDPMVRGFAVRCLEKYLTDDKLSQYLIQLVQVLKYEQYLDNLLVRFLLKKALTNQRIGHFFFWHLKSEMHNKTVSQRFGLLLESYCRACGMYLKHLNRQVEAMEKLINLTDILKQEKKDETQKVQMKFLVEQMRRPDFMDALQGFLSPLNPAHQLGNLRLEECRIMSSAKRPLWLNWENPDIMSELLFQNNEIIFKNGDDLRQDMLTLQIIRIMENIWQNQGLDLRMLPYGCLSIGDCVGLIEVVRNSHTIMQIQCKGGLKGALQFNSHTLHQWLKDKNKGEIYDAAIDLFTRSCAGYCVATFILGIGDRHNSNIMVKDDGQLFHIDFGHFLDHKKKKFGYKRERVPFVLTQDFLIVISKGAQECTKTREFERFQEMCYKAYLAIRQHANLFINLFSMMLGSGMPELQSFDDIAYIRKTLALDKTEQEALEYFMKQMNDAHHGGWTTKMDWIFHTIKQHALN
PI3K-α, sequence (P27986 whole entry partner, species assumed): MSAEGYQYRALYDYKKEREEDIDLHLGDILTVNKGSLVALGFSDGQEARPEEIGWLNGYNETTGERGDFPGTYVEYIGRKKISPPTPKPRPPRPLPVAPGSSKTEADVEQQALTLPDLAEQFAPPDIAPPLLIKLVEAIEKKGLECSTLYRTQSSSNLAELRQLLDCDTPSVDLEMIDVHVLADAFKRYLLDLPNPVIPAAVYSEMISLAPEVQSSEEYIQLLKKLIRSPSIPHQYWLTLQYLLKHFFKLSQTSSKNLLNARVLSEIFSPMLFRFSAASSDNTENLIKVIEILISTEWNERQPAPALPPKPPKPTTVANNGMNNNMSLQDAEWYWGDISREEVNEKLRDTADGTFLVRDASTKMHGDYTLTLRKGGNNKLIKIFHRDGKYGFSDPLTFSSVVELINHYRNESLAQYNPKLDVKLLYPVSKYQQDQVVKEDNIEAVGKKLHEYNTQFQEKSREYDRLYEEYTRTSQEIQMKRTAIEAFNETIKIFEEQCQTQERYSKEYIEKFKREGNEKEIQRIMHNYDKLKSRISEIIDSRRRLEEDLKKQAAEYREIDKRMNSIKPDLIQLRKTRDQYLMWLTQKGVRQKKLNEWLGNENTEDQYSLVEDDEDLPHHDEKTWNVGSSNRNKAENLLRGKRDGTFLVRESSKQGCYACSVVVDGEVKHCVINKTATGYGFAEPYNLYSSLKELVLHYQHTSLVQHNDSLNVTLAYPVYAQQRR

Human mTOR (FLAG-TOR), sequence (P42345 1360-2549 limits assumed): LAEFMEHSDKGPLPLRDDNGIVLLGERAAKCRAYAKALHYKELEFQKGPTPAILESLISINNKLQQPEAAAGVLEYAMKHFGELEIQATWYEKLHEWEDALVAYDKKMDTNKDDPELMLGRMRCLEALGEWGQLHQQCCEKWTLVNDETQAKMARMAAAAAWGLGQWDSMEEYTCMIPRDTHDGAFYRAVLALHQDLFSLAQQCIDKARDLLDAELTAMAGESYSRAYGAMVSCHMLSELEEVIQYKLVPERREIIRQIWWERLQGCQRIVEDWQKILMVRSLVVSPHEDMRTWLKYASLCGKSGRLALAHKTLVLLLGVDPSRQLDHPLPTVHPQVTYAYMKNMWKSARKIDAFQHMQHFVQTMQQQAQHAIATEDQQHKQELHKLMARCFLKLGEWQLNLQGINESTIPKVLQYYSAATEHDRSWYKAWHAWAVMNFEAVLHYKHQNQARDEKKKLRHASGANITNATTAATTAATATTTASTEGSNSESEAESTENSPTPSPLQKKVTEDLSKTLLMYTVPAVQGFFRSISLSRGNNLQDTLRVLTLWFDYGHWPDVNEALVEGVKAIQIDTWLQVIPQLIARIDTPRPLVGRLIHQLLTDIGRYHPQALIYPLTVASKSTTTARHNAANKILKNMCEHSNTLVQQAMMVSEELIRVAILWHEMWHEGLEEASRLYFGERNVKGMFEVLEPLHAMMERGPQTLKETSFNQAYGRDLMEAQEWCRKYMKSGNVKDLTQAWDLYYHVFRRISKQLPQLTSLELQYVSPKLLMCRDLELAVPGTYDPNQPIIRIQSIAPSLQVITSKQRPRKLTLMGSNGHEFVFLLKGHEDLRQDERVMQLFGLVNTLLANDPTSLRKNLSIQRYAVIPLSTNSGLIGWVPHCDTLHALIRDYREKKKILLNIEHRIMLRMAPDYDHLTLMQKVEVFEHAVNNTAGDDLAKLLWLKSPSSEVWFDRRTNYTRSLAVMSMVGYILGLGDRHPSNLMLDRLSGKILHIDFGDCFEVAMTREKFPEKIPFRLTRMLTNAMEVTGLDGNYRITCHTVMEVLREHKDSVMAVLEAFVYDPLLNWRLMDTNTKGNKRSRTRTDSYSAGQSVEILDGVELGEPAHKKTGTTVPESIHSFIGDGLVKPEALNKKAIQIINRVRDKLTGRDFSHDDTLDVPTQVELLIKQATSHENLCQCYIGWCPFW

With `O=C(Nc1ccc(-c2nc(NC3CNC3)nc(N3CCOCC3)n2)cc1)Nc1cccnc1` [Example 18, 1-{4-[4-(azetidin-3-ylamino)-6-morpholin-4-yl-1,3,5-triazin-2-yl]phenyl}-3-pyridin-3-ylurea], the IC50 at PI3K-γ is 71 nM; at Human mTOR (FLAG-TOR) (read-out: IC50 mTOR) it was 36 nM; in assay [1], 2660 nM; in assay [2], 7100 nM; at PI3K-α, 9 nM.

As for `O=C(Nc1ccc(F)cc1)Nc1ccc(-c2nc(NC3CNC3)nc(N3CCOCC3)n2)cc1` [Example 19, 1-{4-[4-(azetidin-3-ylamino)-6-morpholin-4-yl-1,3,5-triazin-2-yl]phenyl}-3-(4-fluorophenyl)urea], the IC50 is 206 nM on PI3K-γ; 39 nM on Human mTOR (FLAG-TOR) (read-out: IC50 mTOR); 1030 nM in assay [1]; 1600 nM in assay [2]; 23 nM on PI3K-α.

For `Cc1ccc(NC(=O)Nc2ccc(-c3nc(NC4CNC4)nc(N4CCOCC4)n3)cc2)cc1` [Example 20, 1-{4-[4-(azetidin-3-ylamino)-6-morpholin-4-yl-1,3,5-triazin-2-yl]phenyl}-3-(4-methylphenyl)urea], the IC50 on PI3K-γ was 258 nM; on Human mTOR (FLAG-TOR) (read-out: IC50 mTOR) it was 30.5 nM; in assay [1] it was over 10000 nM; in assay [2], over 10000 nM; on PI3K-α it was 41 nM.

Regarding `CC(C)(C)OC(=O)N1CC(Nc2nc(-c3ccc(NC(=O)Nc4ccncc4)cc3)nc(N3CCOCC3)n2)C1` [Example 21, tert-butyl 3-[(4-morpholin-4-yl-6-{4-[(pyridine-4-ylcarbamoyl)amino]phenyl}-1,3,5-triazin-2-yl)amino]azetidine-1-carboxylate], the IC50 at PI3K-γ is 92 nM; on Human mTOR (FLAG-TOR) (read-out: IC50 mTOR), 1.75 nM; in assay [1], 129 nM; in assay [2], 246 nM; at PI3K-α it was 22 nM.

Regarding `O=C(Nc1ccncc1)Nc1ccc(-c2nc(NC3CNC3)nc(N3CCOCC3)n2)cc1` [Example 22, 1-{4-[4-(azetidin-3-ylamino)-6-morpholin-4-yl-1,3,5-triazin-2-yl]phenyl}-3-pyridin-4-ylurea], the IC50 at PI3K-γ came out at 142 nM; on Human mTOR (FLAG-TOR) (read-out: IC50 mTOR), 4.75 nM; in assay [1] it was 1420 nM; in assay [2] it was 2440 nM; on PI3K-α, 12 nM.

On to `O=C(Nc1ccccc1)Nc1ccc(-c2nc(N3CCOCC3)nc(N3CC4CCC(C3)O4)n2)cc1` [Example 23, 1-{4-[4-morpholin-4-yl-6-(8-oxa-3-azabicyclo[3.2.1]oct-3-yl)-1,3,5-triazin-2-yl]phenyl}-3-phenylurea], for which the IC50 on PI3K-γ came out at 51 nM; at Human mTOR (FLAG-TOR) (read-out: IC50 mTOR) it was 2.05 nM; in assay [1], 104 nM; in assay [2], 147 nM; on PI3K-α, 18 nM.

Regarding `O=C(Nc1ccc(F)cc1)Nc1ccc(-c2nc(N3CCOCC3)nc(N3CC4CCC(C3)O4)n2)cc1` [Example 24, 1-(4-fluorophenyl)-3-{4-[4-morpholin-4-yl-6-(8-oxa-3-azabicyclo[3.2.1]oct-3-yl)-1,3,5-triazin-2-yl]phenyl}urea], the IC50 on PI3K-γ came to 99 nM; at Human mTOR (FLAG-TOR) (read-out: IC50 mTOR), 2.7 nM; in assay [1], 122 nM; in assay [2], 142 nM; at PI3K-α, 22 nM.

In the case of `Cc1ccc(NC(=O)Nc2ccc(-c3nc(N4CCOCC4)nc(N4CC5CCC(C4)O5)n3)cc2)cc1` [Example 25, 1-(4-methylphenyl)-3-{4-[4-morpholin-4-yl-6-(8-oxa-3-azabicyclo[3.2.1]oct-3-yl)-1,3,5-triazin-2-yl]phenyl}urea], the IC50 on PI3K-γ was 105 nM; on Human mTOR (FLAG-TOR) (read-out: IC50 mTOR) it was 4.05 nM; in assay [1], 264 nM; in assay [2], 258 nM; on PI3K-α it was 58 nM.

Regarding `O=C(Nc1ccncc1)Nc1ccc(-c2nc(N3CCOCC3)nc(N3C4CCC3COC4)n2)cc1` [Example 34, 1-{4-[4-morpholin-4-yl-6-(3-oxa-8-azabicyclo[3.2.1]oct-8-yl)-1,3,5-triazin-2-yl]phenyl}-3-pyridin-4-ylurea], the IC50 on PI3K-γ was 95 nM; on PI3K-γ (listed as 669) it was 89 nM; at Human mTOR (FLAG-TOR) (read-out: IC50 mTOR), 0.49 nM and 0.48 nM; in assay [1], 28 nM; in assay [2] (PC3-mm2 cells) it was 41 nM; in assay [2], 41 nM. The IC50 at PI3K-α amounted to 9 nM; on PI3K-α (listed as 669), 8 nM.

On to `NC(=O)c1ccc(NC(=O)Nc2ccc(-c3nc(N4CCOCC4)nc(N4C5CCC4COC5)n3)cc2)cc1` [Example 35, 4-[({4-[4-morpholin-4-yl-6-(3-oxa-8-azabicyclo[3.2.1]oct-8-yl)-1,3,5-triazin-2-yl]phenyl}carbamoyl)amino]benzamide], for which the IC50 on PI3K-γ was 54 nM; at PI3K-γ (listed as 670), 53 nM; on Human mTOR (FLAG-TOR) (read-out: IC50 mTOR) it was 0.21 nM and 0.212 nM; in assay [1], 22.5 nM; in assay [2] (PC3-mm2 cells), 27.5 nM; in assay [2] it was 27.5 nM. The IC50 at PI3K-α turned out to be 6 nM; at PI3K-α (listed as 670), 5 nM.

As for `O=C(Nc1ccc(-c2nc(N3CCOCC3)nc(N3C4CCC3COC4)n2)cc1)Nc1cccnc1` [Example 36, 1-{4-[4-morpholin-4-yl-6-(3-oxa-8-azabicyclo[3.2.1]oct-8-yl)-1,3,5-triazin-2-yl]phenyl}-3-pyridin-3-ylurea], the IC50 at PI3K-γ is 150 nM; at PI3K-γ (listed as 671), 150 nM; at Human mTOR (FLAG-TOR) (read-out: IC50 mTOR), 0.51 nM and 0.505 nM; in assay [1] (MDA-MB-361 cells) it was 73 nM; in assay [1], 73 nM; in assay [2] (PC3-mm2 cells) it was 98 nM. For the same compound, the IC50 in assay [2] was determined as 98 nM; at PI3K-α, 17 nM; at PI3K-α (listed as 671), 17.5 nM.

On to `O=C(Nc1ccc(F)cc1)Nc1ccc(-c2nc(N3CCOCC3)nc(N3C4CCC3COC4)n2)cc1` [Example 37, 1-(4-fluorophenyl)-3-{4-[4-morpholin-4-yl-6-(3-oxa-8-azabicyclo[3.2.1]oct-8-yl)-1,3,5-triazin-2-yl]phenyl}urea], for which the IC50 at PI3K-γ is 155 nM; at PI3K-γ (listed as 672), 154 nM; against Human mTOR (FLAG-TOR) (IC50 mTOR), 1.95 nM; in assay [1] (MDA-MB-361 cells), 98 nM; in assay [1], 98 nM; in assay [2] (PC3-mm2 cells), 176 nM. Also, the IC50 in assay [2] turned out to be 176 nM; at PI3K-α it was 39 nM; at PI3K-α (listed as 672) it was 39.5 nM.

As to `O=C(Nc1ccc(CO)cc1)Nc1ccc(-c2nc(N3CCOCC3)nc(N3C4CCC3COC4)n2)cc1` [Example 38, 1-[4-(hydroxymethyl)phenyl]-3-{4-[4-morpholin-4-yl-6-(3-oxa-8-azabicyclo[3.2.1]oct-8-yl)-1,3,5-triazin-2-yl]phenyl}urea], the IC50 on PI3K-γ is 91 nM; at PI3K-γ (listed as 673), 98.7 nM; at Human mTOR (FLAG-TOR) (read-out: IC50 mTOR), 0.28 nM and 0.43 nM; in assay [1], 15 nM; in assay [2] (PC3-mm2 cells), 28 nM; in assay [2] it was 28 nM. Moreover, the IC50 on PI3K-α stood at 7 nM.

With `O=C(Nc1ccc(CCO)cc1)Nc1ccc(-c2nc(N3CCOCC3)nc(N3C4CCC3COC4)n2)cc1` [Example 39, 1-[4-(2-hydroxyethyl)phenyl]-3-{4-[4-morpholin-4-yl-6-(3-oxa-8-azabicyclo[3.2.1]oct-8-yl)-1,3,5-triazin-2-yl]phenyl}urea], the IC50 on PI3K-γ is 75 nM; on PI3K-γ (listed as 674) it was 74.5 nM; at Human mTOR (FLAG-TOR) (read-out: IC50 mTOR) it was 0.32 nM and 0.325 nM; in assay [1], 22 nM; in assay [2] (PC3-mm2 cells), 30 nM; in assay [2] it was 30 nM. In addition, the IC50 at PI3K-α stood at 14 nM.

For `Cc1ccc(NC(=O)Nc2ccc(-c3nc(N4CCOCC4)nc(N4C5CCC4COC5)n3)cc2)cc1` [Example 41, 1-(4-methylphenyl)-3-{4-[4-morpholin-4-yl-6-(3-oxa-8-azabicyclo[3.2.1]oct-8-yl)-1,3,5-triazin-2-yl]phenyl}urea], the IC50 was determined as 122 nM on PI3K-γ; 1.3 nM at Human mTOR (FLAG-TOR) (read-out: IC50 mTOR); 167 nM in assay [1] (MDA-MB-361 cells); 167 nM in assay [1]; 301 nM in assay [2] (PC3-mm2 cells); 301 nM in assay [2]. Also, the IC50 came out at 69 nM on PI3K-α and 69.5 nM at PI3K-α (listed as 676).

Turning to `N#Cc1ccc(NC(=O)Nc2ccc(-c3nc(N4CCOCC4)nc(N4C5CCC4COC5)n3)cc2)cc1` [Example 42, 1-(4-cyanophenyl)-3-{4-[4-morpholin-4-yl-6-(3-oxa-8-azabicyclo[3.2.1]oct-8-yl)-1,3,5-triazin-2-yl]phenyl}urea], the IC50 worked out at 290 nM on PI3K-γ; 3.35 nM at Human mTOR (FLAG-TOR) (read-out: IC50 mTOR); 345 nM in assay [1]; 3600 nM in assay [2] (PC3-mm2 cells); 3600 nM in assay [2]; 86 nM on PI3K-α. The IC50 at PI3K-α (listed as 677) was found to be 86.5 nM.

For orientation: IC50 means the concentration that gives 50% inhibition.
